Two compounds from paper PMC12990037, “Discovery of Two Structurally Distinct Classes of Inhibitors Targeting the Nuclease MUS81 and Enhancing Efficacy of Chemotherapy in Cancer Cells” (Journal of Medicinal Chemistry, 2026) can be followed below.

Common to all, as to format: cell-based
Test [1] deals with U2OS cells. The test can be described thus: EdU/PI cell cycle assay. The settings on record: 72 h; for cell cycle progression: 0.5 μM; for cell cycle profile: 1 μM. The procedure: Given these promising findings, we further investigated the specificity of MU262 and MU876 and potential short-term cytotoxicity. To mirror the treatment duration used in BIR and HR assays, U2OS cells were exposed to the inhibitors or siRNA for 3 days.
U2OS WT cells (300,000) were seeded in a 6-well plate; a subset of them was treated with either control siRNA or siRNA targeting MUS81. After adhesion, cells were treated with the respective inhibitors for 72 h during which CPT ([…], Sigma-Aldrich) was added for the last 16 h and 10 μM EdU (Sigma-Aldrich) was added for the last 1 h. Cells were then harvested and stained by using the Click-iT EdU Alexa Fluor 647 Flow Cytometry Assay Kit (Thermo Fisher Scientific). Finally, cells were resuspended in 1xPBS containing 5 μg/mL of propidium iodide (PI) and analyzed using a BD FACSVerse flow cytometer (Becton Dickinson) and FlowJo software (BD Life Sciences). At least 20,000 cells were used for each measurement, and experiments were performed in duplicates.

In test [2] the test system is U2OS cells. The test is described as follows: Colony formation assay (CFA). The settings on record: 10–12 days. Here is the method:
6 MUS81 inhibition induces persistent DNA damage leading to reduced cell survival. (A) U2OS cells were treated with DMSO, cisplatin as a positive control, control or MUS81-targeting siRNA, MU262, MU876, and their negative control counterparts at the indicated concentrations for 72 h. Representative images show staining of a DNA damage marker γH2AX in green with counterstaining of DAPI in blue. The concentration of all inhibitors shown in (A) is 2.5 μM. (B) DNA damage was assessed by quantifying γH2AX foci per nucleus from (A) using CellProfiller software. The graph represents percentage (%) of cells with ≥20 γH2AX foci per nucleus across different concentrations of inhibitors. n = 3; error bars represent s.d. (C) Indicated number of U2OS cells was transfected with a nontargeting siRNA (siCon) or MUS81-targeting siRNA (siMUS81) seeded for a CFA. […] (D) Quantification of (C), error bars represent s.d.; ****p <0.0001 (unpaired, two-tailed t-test). […] (F) Quantification of (E) using a nonlinear regression fitting model. n = 3. […] (H) Quantification of (G) using a nonlinear regression fitting model. n = 3.
Cells were trypsinized, plated at the desired density in 6-well plates for colony forming assay, and then incubated for 10 days. […] The colonies were then solubilized using 10% acetic acid solution, and absorbance was measured with a plate reader. […]

Test [3] concerns CAL51 MUS81^–/– cells. The test can be described thus: Cell proliferation assay (CyQUANT), combination with cisplatin. Here is the method: CAL51 WT, CAL51 MUS81^–/–, U2OS, and HEK293 cells were seeded in a 96-well plate and treated with the respective concentration of selected inhibitors. After incubation for 4–5 days, cells were harvested while the untreated control was still subconfluent. The plate was then incubated at −80 °C to achieve cell lysis. Cell proliferation was assessed using the CyQUANT Cell Proliferation Assay kit (Thermo Fisher Scientific) according to manufacturer’s instructions. […] was measured using a plate reader (Infinite F500, Tecan Austria GmbH).

Test [4] concerns U2OS BIR-GFP cells. The test can be described thus: I-SceI-based BIR repair reporter assay. The settings on record: Homo sapiens, 72 h, normalized to DMSO. Here is the method: 3 MUS81 inhibitors suppress HR and BIR. (A) I-SceI-based BIR repair efficiency was measured in U2OS BIR-GFP cells treated with DMSO, two different siRNAs targeting MUS81, or the indicated concentrations of MU262 and MU876, and their control analogues for 72 h. The percentage of repair was normalized to the DMSO-treated control (D). n = 3. Error bars represent standard deviation (s.d.); ****p <0.0001 (unpaired, two-tailed t-test). […] (C,D) I-SceI-based HR (C) and NHEJ (D) repair efficiency was measured using U2OS DR-GFP and EJ5-GFP cells, respectively, following treatment with DMSO, MU262,MU876, or their control analogues for 72 h. The percentage of repair was normalized to the DMSO-treated control. n = 3. Error bars represent s.d.; *p <0.05, **p <0.01, ****p <0.0001 (unpaired, two-tailed t-test).
Reporter DR-GFP and […] U2OS cells along with BIR-GFP cells were transfected with 2.5 μg of I-SceI-expressing pCAGGS vector and subsequently treated with MUS81 inhibitors at the indicated concentrations. After transfection (72 h), cells were trypsinized and resuspended in 3% BSA in PBS. GFP fluorescence detection was carried out using a BD FACSVerse flow cytometer, and the data were analyzed with FlowJo software (BD Life Sciences). Data presented in the graph were normalized to the DMSO-treated sample.

The test system of test [5] is U2OS cells. The test is described as follows: Analysis of micronuclei. The settings on record: 48 h. The procedure: 5 Small-molecule inhibitors of MUS81 mimic the effect of siRNA-mediated MUS81 depletion in cells. (A) U2OS cells were treated with DMSO, MUS81-targeting siRNA, MU262, MU876, or their respective control analogues for 48 h. Cytochalasin B (1.25 μg/mL) was added 16 h before harvest to prevent cytokinesis. […] (B) Representative images corresponding to the selected conditions from (A). (C) U2OS and (D) HeLa cells were incubated with DMSO, the indicated inhibitors, and their respective control analogues for 48 h. Nocodazole (200 ng/mL) was added for 5 h prior to the end of treatment to arrest cells in mitosis. Mitotic cells were collected by shake-off, and telomere fragility events (TFEs) were quantified manually for each metaphase spread. At least 70 metaphase spreads were quantified per condition. n = 3; error bars represent s.d.; ***p < 0.001, ****p < 0.0001 (ordinary One-way ANOVA).
CAL51 WT and CAL51 MUS81^–/– cells were seeded in a 96-well plate 24 h before the treatment. Alternatively, cells were transfected with 30 nM siRNA (control or MUS81) for 48 h before treatment. Subsequently, cells were treated with respective inhibitors for 48 h. During the last 16 h, cytochalasin B (Sigma-Aldrich) was added to the cells at a concentration of 1.25 μg/mL. […] Images were acquired using a Nikon Eclipse fluorescence microscope and analyzed using ImageJ software.

SMILES strings stand for the structures. pIC50: −log10 of the molar value.

For orientation: pIC50 means −log10 of the IC50, conventionally taken in molar units. As to `CCc1nn2c(O)c(-c3nc4ccccc4[nH]3)nnc2c1-c1ccc(F)cc1` [Compound 18, 3-(1H-Benzo[d]imidazole-2-yl)-7-ethyl-8-(4-fluorophenyl)pyrazolo[5,1-c][1,2,4]triazin-4-ol], in test [1], the cell cycle progression result is “neither MU262 and MU876 affected the cell cycle progression”; the cell cycle profile result is “mild increase in the S phase”. Also, the clonogenic cell survival entry in test [2] is reported as “significantly decreased cell survival”. Further, the sensitization to cisplatin result in test [3] is given as “no additional sensitization”. The compound also showed a negative logarithm of the IC50 (pIC50) in test [4] of 5.82. In addition, the micronuclei formation result in test [5] was “significantly increased micronuclei formation”.
`Cc1cc(=O)[nH]c(-n2nc(-c3ccccc3)cc2NC(=O)c2cc(-c3ccccc3)on2)n1` [Compound 32, N-(1-(4-Methyl-6-oxo-1,6-dihydropyrimidin-2-yl)-3-phenyl-1H-pyrazol-5-yl)-5-phenylisoxazole-3-carboxamide]: in test [1], the cell cycle progression result is “neither MU262 and MU876 affected the cell cycle progression”; the cell cycle profile entry is listed as “mild increase in the S phase”. Also, the clonogenic cell survival entry in test [2] is “significantly decreased cell survival”. For the same compound, the sensitization to cisplatin result in test [3] is “no additional sensitization”. The pIC50 in test [4] is 6.62. Also, the micronuclei formation entry in test [5] is “significantly increased micronuclei formation”.
